In patent publication US20140120577A1, “Metalloporphyrin Inducible Promoter” (CHR HANSEN A/S, priority 2011, published 2014):
Where two headings read alike, the source gives them in different places.

Assays:
[1] = tested on: promoter of the ygƒCBA operon (Pheme); experiment: lacZ reporter (beta-galactosidase, Miller method) induction from pTCV Pheme-ygfC-lacZ plasmid in L. lactis MG1363; type: cell-based, Lactococcus lactis; settings: for fold induction of beta-galactosidase: M17-glucose (1%)
Procedure: The pTCV-lac plasmid was used to transform the L. lactis strain MG1363. The transformants were selected on M17 plus glucose (0.5%) solid medium containing erythromycin 3 μg/ml. Colonies were purified and cells stored at −80° C.
Hemin solution is prepared at 20 mM in 50 mM NaOH, and aliquoted for storage at −20° C.; one tube is used for each assay and is then discarded.
PPIX-Ga solution is prepared at 10 mM in dimethylsulfoxide, and prepared in aliquots for storage at −20° C.; one tube is used for each assay and is then discarded.
The L. lactis cells carrying the plasmid are precultured overnight at 30° C. under non-aeration conditions in M17-glucose (0.5%) medium or BHI-Tris (note that BHI includes 0.2% glucose). The media are supplemented with 3 μg/ml erythromycin to maintain the plasmid.
The following day, the precultures are diluted 100-fold in new M17-glucose (1%) medium or BHI-Tris medium (0.5% final glucose concentration), and containing 3 μg/ml erythromycin. The cultures are grown at 30° C. either under non-aeration conditions (nonagitated cultures in full bottles), or under aeration conditions (cultures in conical flasks with baffles, one tenth full; agitation at 170 rpm in the presence of air). The growth is monitored by measuring the OD600.
The inducer is added either simultaneously with the bacteria, or during growth when the bacteria exit the lag phase (OD600=˜0.1 in M17-glucose [1%] medium, OD600=˜0.2 to 0.3 in BHI-Tris-glucose medium).
Cells are recovered from the cultures at OD600=1, and beta-galactosidase activity of the bacterial extracts is quantified by the Miller method (MILLER, Experiments in molecular genetics. Cold Spring Harbor Laboratory Press, Cold Spring Harbor, N.Y., 1972). In the presence of o-nitrophenyl-β-D-galactoside (ONPG), beta-galactosidase produces yellow-colored O-nitrophenol which can be assayed by measuring the optical density at 420 nm (A420); Beta-galactosidase activity of each sample is measured in Miller units by the following formula: 1000×A420/T(min)×V(ml)×A600. This formula measures activity in a cell sample, such that the value is standardized to the same cell biomass (given as the A600 value).

[2] = tested on: promoter of the ygƒCBA operon (Pheme); experiment: lacZ reporter (beta-galactosidase) induction in Streptococcus agalactiae NEM316; type: cell-based; settings: for amount of inducer resulting in optimal induction: 1 or 10 μM tested; for induction (in words): BHI-Tris-glucose, non-aerated and aerated cultures; for induction of the promoter (in words): summary statement; for induction over background without hemin: M17-glucose, added at OD600 ~0.3, 1 hour
Procedure: The pTCV-lac plasmid was used to transform the Streptococcus agalactiae strain NEM316. The transformants were selected on solid M17-glucose (0.5%) medium containing erythromycin 3 μg/ml.
Hemin and PPIX-Ga solutions are prepared as described in Example 2 above.
The Streptococcus agalactiae cells carrying the plasmid are precultured overnight at 37° C. in M17-glucose (0.2%) and 3 μg/ml erythromycin, or in BHI-Tris medium supplemented with 3 μg/ml erythromycin.
The following day, the precultures are diluted 100-fold in new M17-glucose (1%) medium supplemented with 3 μg/ml erythromycin, or BHI-Tris-glucose (0.5% final concentration), and 3 μg/ml erythromycin. The cultures are grown at 37° C. either under non-aeration conditions or under aeration conditions and growth is monitored by measuring the OD600 as described above for Lactococcus lactis.
The inducer is added during growth when bacteria exit the lag phase (OD600=˜0.25 to 0.3).
Cells are recovered from the cultures at OD600=1, and bacterial beta-galactosidase activity is quantified as described in Example 2 above.

[3] = tested on: PhemeygƒC inducible system; experiment: PHEME-ygƒC-lacZ reporter induction in Lactobacillus casei (BETA-GLO test); type: cell-based; settings: 10 μM hemin; MRS; static or aerated; 1 hour; endogenous background subtracted
Procedure: The pTCV-PhemeygƒC-lacZ plasmid described in Example 1 was used to transform a Lactobacillus casei laboratory strain. Transformants were selected on solid MRS medium containing erythromycin 3 μg/ml.
Hemin was prepared as described in Example 2 above.
The Lactobacillus casei cells carrying the pTCV-PhemeygƒC-lacZ plasmid were precultured overnight at 37° C. in MRS containing 3 μg/ml erythromycin. […] This was used as a control for background due to endogenous beta-galactosidase activity present in this species.
The following day, the precultures were diluted 20-fold in fresh MRS medium supplemented with 3 μg/ml erythromycin. The cultures were grown at 37° C. under static and aeration conditions and growth was monitored by measuring the OD600 as described above for Lactococcus lactis. The hemin inducer (10 μM final concentration) was added during growth once bacteria were in exponential phase (OD600=˜0.4).
Cells in mid exponential phase (OD600=˜0.4) were recovered from the cultures after 1 hour in the presence of the hemin inducer and the volumes were adjusted to a final fixed OD600 for the assay. In this experiment, bacterial beta-galactosidase activity is quantified using the commercially available BETA-GLO test (Promega), following manufacturer instructions.

[4] = tested on: ygƒCBA operon; settings: 100 μM heme, cited from earlier work
[5] = BHI-Tris-glucose medium, non-aeration or aeration

| Structure (SMILES) | fold induction of beta-galactosidase ([1]; non-aeration (static), 10 or 20 μM added during growth (OD600 ~0.1)) | fold induction of beta-galactosidase ([1]; non-aeration (static), 10 or 20 μM added simultaneously with the bacteria) | induction of the promoter (in words) ([1]; aeration and non-aeration conditions) | amount of inducer resulting in optimal induction [2, 5] | induction (in words) [2] | induction of the promoter (in words) [2] | fold induction of beta-galactosidase ([1]; aeration, inducer added during growth (OD600 ~0.1), cells recovered at OD600=1) | fold induction of beta-galactosidase ([1]; aeration, inducer added simultaneously with the bacteria, cells recovered at OD600=1) | increase of beta-galactosidase expression ([1]; depending on the heme concentration and the culture conditions) | amount of inducer resulting in optimal induction ([2]; M17-glucose medium, non-aeration and aeration) | induction over background without hemin ([2]; aeration conditions) | induction over background without hemin ([2]; non-aeration conditions) | induction of beta-galactosidase (in words) [3] | induction of the ygƒCBA operon ([4]; aeration conditions) | induction of the ygƒCBA operon ([4]; non-aeration conditions) |
| --- | --- | --- | --- | --- | --- | --- | --- | --- | --- | --- | --- | --- | --- | --- | --- |
| C=CC1=C(C)C2=[N+]3C1=Cc1c(C)c(C=C)c4[n]1[Ga-]31[n]3c(c(C)c(CCC(=O)O)c3=CC3=[N+]1C(=C4)C(C)=C3CCC(=O)O)=C2 (stereo not drawn) [Ga-PPIX, gallium-protoporphyrin IX] | 120 fold | 90 fold | efficient inducer | 10 µM | efficient | efficient inducers |  |  |  |  |  |  |  |  |  |
| C=CC1=C(C)c2cc3[n-]c(cc4[n-]c(cc5nc(cc1n2)C(C)=C5C=C)c(C)c4CCC(=O)O)c(CCC(=O)O)c3C.[Cl-].[Fe+3] [hemin] |  |  |  | 1 µM | efficient | efficient inducers | 80 fold | 70 fold | up to 100 fold | 1 µM | more than 150 fold | less than 50 fold | strong induction | up to 50 fold | up to 80 fold |
